System: transfected CHO cells expressing recombinant human monoclonal antibody (cell line 1)
Test: 24-deep well culture, cell line 1: VCD, viability, titer, qP
Format: cell-based, Chinese hamster
Settings: for Titer / VCD / Viability / qP: Cell Line 1
Method: Transfected CHO cells expressing a recombinant human monoclonal antibody (mAb) are cultured in 24-deep well plates with seeding density at 1×10^7/mL for five days. At certain time periods, samples of the cultures are taken and evaluated for viable cell density (VCD; expressed in 10^6 cells/mL); percent viability (as determined by trypan blue exclusion); titer of recombinant protein (expressed in grams of protein per liter of culture, or g/L, as determined by Protein A affinity HPLC); qP, or specific productivity (expressed in picograms of recombinant protein per cell per day, or pg/c/d), the presence or absence of high molecular weight substances (usually an indicator of protein aggregation; expressed as % of the total protein); and the relative percentage of Mannose 5, a major intermediate glyco-form that attaches to N297 of the mAb. N-linked glycosylation has an impact on the tertiary structure of the antibody and may affect Fc mediated antibody effector functions. The majority of the human Fc glycans are complex biantennary structures with galactose as the prevalent terminal sugar. Immature glyco-forms, such as high-mannose glycol-forms (Man5-9), are of concern due to potential higher plasma clearance rate (as compared to the clearance rate of complex glycan linked mAbs).
Compounds are further evaluated essentially as described in Example 2 herein. Briefly, transfected CHO cells expressing recombinant human monoclonal antibody (mAb; two different cell lines expressing two different mAb, referred to as cell line 1 and cell line 2) are cultured in 24-deep well plates in the presence or absence of the compounds. At specified time points, samples of the cultures are taken and evaluated for viable cell density (VCD; expressed in 10^6 cells/mL); percent viability (as determined by any method known in the art); titer of recombinant protein (expressed in grams of protein per liter of culture, or g/L, as determined by Protein A affinity HPLC); qP, or specific productivity (expressed in picograms of recombinant protein per cell per day, or pg/c/d). Additional parameters measure include the presence or absence of high molecular weight substances (usually an indicator of protein aggregation; expressed as % of the total protein); and the relative percentage of Mannose 5. For comparison purposes, Compounds A and B, which had been previously tested, were tested again.

SMILES: Fc1ccc(-n2c3cnccc3c3cnc(Nc4ccc(N5CCNCC5)cn4)nc32)c(F)c1 [Compound I, 9-(2,4-difluorophenyl)-N-(5-(piperazin-1-yl)pyridin-2-yl)-9H-pyrido[4′,3′:4,5]pyrrolo[2,3-d]pyrimidin-2-amine]
- Titer (0.625 microM, D 1): 0.46 g/L
- VCD (0.625 microM, D 1): 11.17 e6/mL
- Viability (0.625 microM, D 1): 95.26%
- qP (0.625 microM, D 1): 41.50 pg/c/d
- Titer (0.625 microM, D 2): 0.66 g/L
- VCD (0.625 microM, D 2): 11.98 e6/mL
- Viability (0.625 microM, D 2): 89.90%
- qP (0.625 microM, D 2): 55.10 pg/c/d
- Titer (0.625 microM, D 3): 0.89 g/L
- VCD (0.625 microM, D 3): 12.81 e6/mL
- Viability (0.625 microM, D 3): 85.53%
- qP (0.625 microM, D 3): 69.73 pg/c/d
- Titer (0.625 microM, D 4): 1.07 g/L
- VCD (0.625 microM, D 4): 16.91 e6/mL
- Viability (0.625 microM, D 4): 85.47%
- qP (0.625 microM, D 4): 63.09 pg/c/d
- Titer (1.25 microM, D 1): 0.46 g/L
- VCD (1.25 microM, D 1): 10.89 e6/mL
- Viability (1.25 microM, D 1): 94.78%
- qP (1.25 microM, D 1): 42.55 pg/c/d
- Titer (1.25 microM, D 2): 0.66 g/L
- VCD (1.25 microM, D 2): 11.16 e6/mL
- Viability (1.25 microM, D 2): 88.73%
- qP (1.25 microM, D 2): 58.82 pg/c/d
- Titer (1.25 microM, D 3): 0.89 g/L
- VCD (1.25 microM, D 3): 12.25 e6/mL
- Viability (1.25 microM, D 3): 85.80%
- qP (1.25 microM, D 3): 72.68 pg/c/d
- Titer (1.25 microM, D 4): 1.06 g/L
- VCD (1.25 microM, D 4): 15.33 e6/mL
- Viability (1.25 microM, D 4): 84.19%
- qP (1.25 microM, D 4): 69.35 pg/c/d

SMILES: CC1(C)C=CC2(CC1)c1cnccc1-c1cnc(Nc3ccc(N4CCNCC4)nn3)nc12 (stereo not drawn) [Compound K, 4,4-dimethyl-N-(6-(piperazin-1-yl)pyridazin-3-yl)spiro[cyclohex[2]ene-1,9′-pyrido[4′,3′:3,4]cyclopenta[1,2-d]pyrimidin]-2′-amine]
- Titer (1.25 microM, D 1): 0.48 g/L
- VCD (1.25 microM, D 1): 11.87 e6/mL
- Viability (1.25 microM, D 1): 95.72%
- qP (1.25 microM, D 1): 40.15 pg/c/d
- Titer (1.25 microM, D 2): 0.72 g/L
- VCD (1.25 microM, D 2): 13.04 e6/mL
- Viability (1.25 microM, D 2): 92.13%
- qP (1.25 microM, D 2): 54.94 pg/c/d
- Titer (1.25 microM, D 3): 1.01 g/L
- VCD (1.25 microM, D 3): 16.39 e6/mL
- Viability (1.25 microM, D 3): 90.36%
- qP (1.25 microM, D 3): 61.61 pg/c/d
- Titer (1.25 microM, D 4): 1.07 g/L
- VCD (1.25 microM, D 4): 22.55 e6/mL
- Viability (1.25 microM, D 4): 91.21%
- qP (1.25 microM, D 4): 47.60 pg/c/d
- Titer (2.5 microM, D 1): 0.48 g/L
- VCD (2.5 microM, D 1): 11.77 e6/mL
- Viability (2.5 microM, D 1): 96.38%
- qP (2.5 microM, D 1): 40.78 pg/c/d
- Titer (2.5 microM, D 2): 0.72 g/L
- VCD (2.5 microM, D 2): 12.07 e6/mL
- Viability (2.5 microM, D 2): 90.97%
- qP (2.5 microM, D 2): 59.38 pg/c/d
- Titer (2.5 microM, D 3): 1.05 g/L
- VCD (2.5 microM, D 3): 15.31 e6/mL
- Viability (2.5 microM, D 3): 89.25%
- qP (2.5 microM, D 3): 68.37 pg/c/d
- Titer (2.5 microM, D 4): 1.22 g/L
- VCD (2.5 microM, D 4): 21.06 e6/mL
- Viability (2.5 microM, D 4): 89.80%
- qP (2.5 microM, D 4): 58.10 pg/c/d

SMILES: CC1(C)CN(c2ccc(Nc3ncc4c5ccncc5n(-c5ccc(F)cc5F)c4n3)nc2)CCN1 [Compound J, 9-(2,4-difluorophenyl)-N-(5-(3,3-dimethylpiperazin-1-yl)pyridin-2-yl)-9H-pyrido[4′,3′:4,5]pyrrolo[2,3-d]pyrimidin-2-amine]
- Titer (0.625 microM, D 1): 0.45 g/L
- VCD (0.625 microM, D 1): 11.40 e6/mL
- Viability (0.625 microM, D 1): 94.94%
- qP (0.625 microM, D 1): 39.77 pg/c/d
- Titer (0.625 microM, D 2): 0.68 g/L
- VCD (0.625 microM, D 2): 14.02 e6/mL
- Viability (0.625 microM, D 2): 91.87%
- qP (0.625 microM, D 2): 48.50 pg/c/d
- Titer (0.625 microM, D 3): 0.88 g/L
- VCD (0.625 microM, D 3): 16.48 e6/mL
- Viability (0.625 microM, D 3): 90.31%
- qP (0.625 microM, D 3): 53.61 pg/c/d
- Titer (0.625 microM, D 4): 0.99 g/L
- VCD (0.625 microM, D 4): 19.37 e6/mL
- Viability (0.625 microM, D 4): 89.98%
- qP (0.625 microM, D 4): 51.10 pg/c/d
- Titer (1.25 microM, D 1): 0.44 g/L
- VCD (1.25 microM, D 1): 11.54 e6/mL
- Viability (1.25 microM, D 1): 94.24%
- qP (1.25 microM, D 1): 38.41 pg/c/d
- Titer (1.25 microM, D 2): 0.64 g/L
- VCD (1.25 microM, D 2): 11.25 e6/mL
- Viability (1.25 microM, D 2): 87.53%
- qP (1.25 microM, D 2): 57.19 pg/c/d
- Titer (1.25 microM, D 3): 0.86 g/L
- VCD (1.25 microM, D 3): 14.06 e6/mL
- Viability (1.25 microM, D 3): 84.29%
- qP (1.25 microM, D 3): 61.40 pg/c/d
- Titer (1.25 microM, D 4): 1.08 g/L
- VCD (1.25 microM, D 4): 17.54 e6/mL
- Viability (1.25 microM, D 4): 84.81%
- qP (1.25 microM, D 4): 61.77 pg/c/d

SMILES: CN(C)C1CCN(c2ccc(Nc3ncc4c(n3)C3(C=CC(C)(C)CC3)c3cnccc3-4)nn2)CC1 (stereo not drawn) [Compound H, N-(6-(4-(dimethylamino)piperidin-1-yl)pyridazin-3-yl)-4,4-dimethylspiro[cyclohex[2]ene-1,9′-pyrido[4′,3′:3,4]cyclopenta[1,2-d]pyrimidin]-2′-amine]
- Titer (10 microM, D 1): 0.47 g/L
- VCD (10 microM, D 1): 11.48 e6/mL
- Viability (10 microM, D 1): 95.80%
- qP (10 microM, D 1): 41.24 pg/c/d
- Titer (10 microM, D 2): 0.69 g/L
- VCD (10 microM, D 2): 12.58 e6/mL
- Viability (10 microM, D 2): 89.83%
- qP (10 microM, D 2): 55.12 pg/c/d
- Titer (10 microM, D 3): 0.94 g/L
- VCD (10 microM, D 3): 13.36 e6/mL
- Viability (10 microM, D 3): 87.77%
- qP (10 microM, D 3): 70.60 pg/c/d
- Titer (10 microM, D 4): 0.92 g/L
- VCD (10 microM, D 4): 16.49 e6/mL
- Viability (10 microM, D 4): 86.93%
- qP (10 microM, D 4): 56.01 pg/c/d
- Titer (20 microM, D 1): 0.47 g/L
- VCD (20 microM, D 1): 10.69 e6/mL
- Viability (20 microM, D 1): 95.60%
- qP (20 microM, D 1): 44.27 pg/c/d
- Titer (20 microM, D 2): 0.68 g/L
- VCD (20 microM, D 2): 11.08 e6/mL
- Viability (20 microM, D 2): 87.70%
- qP (20 microM, D 2): 61.66 pg/c/d
- Titer (20 microM, D 3): 0.92 g/L
- VCD (20 microM, D 3): 10.91 e6/mL
- Viability (20 microM, D 3): 82.95%
- qP (20 microM, D 3): 83.98 pg/c/d
- Titer (20 microM, D 4): 0.97 g/L
- VCD (20 microM, D 4): 12.99 e6/mL
- Viability (20 microM, D 4): 81.36%
- qP (20 microM, D 4): 74.65 pg/c/d

SMILES: OC1CCN(c2ccc(Nc3ncc4c5ccncc5n(C5CCCC5)c4n3)nn2)C1 (stereo not drawn) [Compound G, 1-(6-((9-cyclopentyl-9H-pyrido[4′,3′:4,5]pyrrolo[2,3-d]pyrimidin-2-yl)amino)pyridazin-3-yl)pyrrolidin-3-ol]
- Titer (5 microM, D 1): 0.48 g/L
- VCD (5 microM, D 1): 11.74 e6/mL
- Viability (5 microM, D 1): 95.55%
- qP (5 microM, D 1): 40.59 pg/c/d
- Titer (5 microM, D 2): 0.66 g/L
- VCD (5 microM, D 2): 10.58 e6/mL
- Viability (5 microM, D 2): 88.10%
- qP (5 microM, D 2): 62.69 pg/c/d
- Titer (5 microM, D 3): 0.96 g/L
- VCD (5 microM, D 3): 11.02 e6/mL
- Viability (5 microM, D 3): 83.82%
- qP (5 microM, D 3): 86.81 pg/c/d
- Titer (5 microM, D 4): 0.98 g/L
- VCD (5 microM, D 4): 13.45 e6/mL
- Viability (5 microM, D 4): 82.62%
- qP (5 microM, D 4): 72.60 pg/c/d
- Titer (10 microM, D 1): 0.47 g/L
- VCD (10 microM, D 1): 11.65 e6/mL
- Viability (10 microM, D 1): 95.31%
- qP (10 microM, D 1): 40.64 pg/c/d
- Titer (10 microM, D 2): 0.80 g/L
- VCD (10 microM, D 2): 9.95 e6/mL
- Viability (10 microM, D 2): 85.90%
- qP (10 microM, D 2): 80.10 pg/c/d
- Titer (10 microM, D 3): 0.94 g/L
- VCD (10 microM, D 3): 10.48 e6/mL
- Viability (10 microM, D 3): 81.90%
- qP (10 microM, D 3): 89.39 pg/c/d
- Titer (10 microM, D 4): 1.08 g/L
- VCD (10 microM, D 4): 13.58 e6/mL
- Viability (10 microM, D 4): 79.61%
- qP (10 microM, D 4): 79.79 pg/c/d
- effect on viability (summary of Table 2): minimal effects on viability
- growth arrest (summary of Table 2): reasonably sustained growth arrest

Reference: patent publication US20180087079A1, “METHODS OF USING CELL-CYCLE INHIBITORS TO MODULATE ONE OR MORE PROPERTIES OF A CELL CULTURE” (AMGEN INC., priority 2013, published 2018)
